{"source": "patent US7763588B2", "about": "“Method for increasing cognitive function and neurogenesis” (The Salk Institute for Biological Studies, priority 2003, dated 2010)", "key": {"dentate gyrus [1]": {"test_system": "dentate gyrus", "assay": "BrdU-positive cell proliferation in the dentate gyrus (day 10)", "assay_type": "in vivo, mice", "conditions": "runners, Mars 20 mg/kg or PBN 30 mg/kg daily", "method": "(§1) During the first nine days animals also received daily intraperitoneal BrdU injections (Sigma, St. Louis, Mo.); dissolved in 0.9% NaCl, filtered sterile at 0.2 μm, 50 μg/g body weight at 10 mg/ml) to label dividing cells.\n(§2) On day 10, 7 animals from each group were given an overdose of anesthetics and perfused transcardially with cold 4% paraformaldehyde in 0.1 M PBS to study the effect of the drugs on cell proliferation. […] On day 38 the remaining mice were perfused.\nTo confirm neurogenesis, immunohistochemistry for BrdU was performed on a 1:6 series of free-floating 40-μm coronal sections that were pretreated for BrdU immunohistochemistry by denaturing DNA, as described previously by van Praag et al., Procl. Natl. Acad. Sci. USA 96: 13427-13431 (1999), which is incorporated herein by reference in its entirety. The antibody used was mouse anti-BrdU (Boehringer Mannheim, Indianapolis, Ind.) 1:400. […] Cells were counted at 40× using an upright brightfield microscope (Olympus).\nBrdU-positive cells were analyzed in mice that were allowed to survive for the first 10 days of the experiment. At this time point cell proliferation, but not neurogenesis can be assessed, since it takes about a month for a newly born cell to become a neuron (van Praag et al., Nature 415: 1030-1034 (2002), which is incorporated herein by reference in its entirety)."}, "female C57BL/6 mice [2]": {"test_system": "female C57BL/6 mice", "assay": "Running wheel activity (wheel revolutions)", "assay_type": "in vivo", "conditions": "runners, wheel about 4 hours daily after injection; Mars 20 mg/kg or PBN 30 mg/kg daily; compared with Runner/Saline", "method": "(§3) Ninety-six female C57BL/6 mice, ten weeks old were purchased from Harlan SD and housed individually with a reversed day/night cycle: lights on at 10 p.m. and off at 10 a.m. The mice were divided into six groups of 16 mice each: Control/Saline (CS) Control/PBN (CP), Control/Mars (CM), Runner/Saline (RS), Runner/PBN (RP) and Runner/Mars (RM). Runners were moved into a cage with a running wheel (Lafayette Instruments) for 4 hours per day, from 10 a.m. to 2 p.m. The mice received daily injections of saline, N-tert-Butyl-phenylnitrone (PBN, 30 mg/kg) or 3′- and 4′-methylated epicatechin 1:1 (Mars, 20 mg/kg). Mice in the running groups were placed in cages with wheels after drug injection for about 4 hours daily."}, "dentate gyrus [3]": {"test_system": "dentate gyrus", "assay": "Cell survival and neurogenesis in the dentate gyrus (BrdU labeling, day 38)", "assay_type": "in vivo", "conditions": "mice that exercise; Mars 20 mg/kg or PBN 30 mg/kg daily", "method": "as §1, §2\nTo confirm neurogenesis, immunohistochemistry for BrdU was performed on a 1:6 series of free-floating 40-μm coronal sections that were pretreated for BrdU immunohistochemistry by denaturing DNA, as described previously by van Praag et al., Procl. Natl. Acad. Sci. USA 96: 13427-13431 (1999), which is incorporated herein by reference in its entirety. The antibody used was mouse anti-BrdU (Boehringer Mannheim, Indianapolis, Ind.) 1:400. To visualize the BrdU-labeled cells, staining for BrdU with the peroxidase method was used (ABC system, with biotinylated donkey anti-mouse antibodies and diaminobenzadine as chromogen; Vector Laboratories, Burlingame, Calif.). Cells were counted at 40× using an upright brightfield microscope (Olympus).\nWe are currently processing the tissue of the animals that survived for 38 days to assess the effects of the drugs and exercise on the number of newborn neurons. […]"}, "female C57BL/6 mice [4]": {"test_system": "female C57BL/6 mice", "assay": "Morris water maze spatial learning", "assay_type": "in vivo", "conditions": "Mars 20 mg/kg or PBN 30 mg/kg daily", "method": "as §3, with “mg/kg).” for “mg/kg). Mice in the running groups were placed in cages with wheels after drug injection for about 4 hours daily.”\nas §2\nTo assess spatial learning the mice were trained with two trials per day over eight days on the Morris water maze as described by Morris, J. Neurosci. Methods 11: 47-60 (1984), which is incorporated herein by reference in its entirety. The platform was hidden 1 cm below the surface of water, made opaque with white non-toxic paint. The starting points were changed every day. Each trial lasted either until the mouse had found the platform or for a maximum of 40 seconds. All mice were allowed to rest on the platform for 10 seconds at the end of each trial. The latency to the platform, length of swim path and swim speed was recorded semi-automatically by a video tracking system (Ethovision, Noldus).\nTo assess memory function mice were trained in the water maze for 8 days with 2 trials per day between days 29-36 of the experiment. […] However, when measuring swim speed, there was also a significant difference between the groups (F(5,47)=3.37, p<0.01), raising the possibility that the RM and RP animals performed better due enhanced motor rather than cognitive skills.\nTo further investigate whether the RM and RP had improved learning, the swimming distance was analyzed for all trials. There was no significant difference between the groups in an overall analysis (F(5,47)=1.55, p=0.19)."}}, "note": "“Also recorded” adds a separate entry of the source.", "data": [{"smiles": "CC(C)(C)[N+]([O-])=Cc1ccccc1", "note": "[PBN, N-tert-Butyl-phenylnitrone]", "values": [{"measurement": "average number of BrdU-labeled cells per section (cell proliferation / cell genesis)", "setting": "dentate gyrus [1]", "result": "the greatest increase; also recorded: more cell genesis in these animals than in all the other groups"}, {"measurement": "number of wheel revolutions", "setting": "female C57BL/6 mice [2]", "result": "no difference between RS and RP"}, {"measurement": "neurogenesis", "setting": "dentate gyrus [3]", "result": "enhances neurogenesis"}, {"measurement": "swim speed", "setting": "female C57BL/6 mice [4]; controls (no running wheel)", "result": "no difference between the runners and CP; also recorded: significantly faster than CM"}, {"measurement": "spatial memory performance / learning", "setting": "female C57BL/6 mice [4]; mice that exercise", "result": "enhances spatial memory performance; also recorded: enhanced learning"}, {"measurement": "latency to the platform, analysis of variance per day", "setting": "female C57BL/6 mice [4]; runners, 8 days of testing", "result": "significantly shorter latencies from day 6 onwards"}, {"measurement": "swim speed", "setting": "female C57BL/6 mice [4]; runners", "result": "swam faster than CS and CM animals"}]}]}
